Data as given in patent US12060333B2 (Hoffmann-La Roche Inc., priority 2021, dated 2024).

Target: SARS-CoV-2 3CLpro (Severe acute respiratory syndrome coronavirus 2, UniProt P0DTD1)
Test: biochemical
Conditions: IC50 (μM), SARS-CoV-2 3CLPro assay

Row | Structure (SMILES) | IC50
1 | NC(=O)CCN(NC(=O)[C@H](CC1CCCCC1)NC(=O)OCc1ccccc1)C(=O)[C@@H](F)Cl (single isomer, unassigned) [Example 16-A] | 0.053 µM
2 | NC(=O)CCN(NC(=O)[C@H](CC1CCCCC1)NC(=O)OCc1ccccc1)C(=O)[C@H](F)Cl (single isomer, unassigned) [Example 16-B] | 0.002 µM
3 | CC(C)C[C@H](NC(=O)OCc1ccccc1)C(=O)NN(CCC(N)=O)C(=O)[C@@H](F)Cl (single isomer, unassigned) [Example 17-A] | 1.63 µM
4 | CC(C)C[C@H](NC(=O)OCc1ccccc1)C(=O)NN(CCC(N)=O)C(=O)[C@H](F)Cl (single isomer, unassigned) [Example 17-B] | 0.077 µM
5 | CC(C)C[C@H](NC(=O)c1cc2ccccc2[nH]1)C(=O)NN(C[C@@H]1CCNC1=O)C(=O)CF (single isomer, unassigned) [Example 38-A] | 0.074 µM
6 | CC(C)C[C@H](NC(=O)c1cc2ccccc2[nH]1)C(=O)NN(C[C@H]1CCNC1=O)C(=O)CF (single isomer, unassigned) [Example 38-B] | 3.16 µM
7 | CC(C)C[C@H](NC(=O)c1cc2ccccc2[nH]1)C(=O)NN(CCC(N)=O)C(=O)[C@@H](F)Cl (single isomer, unassigned) [Example 41-A] | 0.005 µM
8 | CC(C)C[C@H](NC(=O)c1cc2ccccc2[nH]1)C(=O)NN(CCC(N)=O)C(=O)[C@H](F)Cl (single isomer, unassigned) [Example 41-B] | 0.034 µM
9 | CC(C)C[C@H](NC(=O)c1cc2c(Cl)cccc2[nH]1)C(=O)NN(CCC(N)=O)C(=O)[C@@H](F)Cl (single isomer, unassigned) [Example 53-A] | 0.014 µM
10 | CC(C)C[C@H](NC(=O)c1cc2c(Cl)cccc2[nH]1)C(=O)NN(CCC(N)=O)C(=O)[C@H](F)Cl (single isomer, unassigned) [Example 53-B] | 0.025 µM
11 | CC(C)C[C@H](NC(=O)c1nc2ccccc2[nH]1)C(=O)NN(CCC(N)=O)C(=O)[C@@H](F)Cl (single isomer, unassigned) [Example 63-A] | 0.043 µM
12 | CC(C)C[C@H](NC(=O)c1nc2ccccc2[nH]1)C(=O)NN(CCC(N)=O)C(=O)[C@H](F)Cl (single isomer, unassigned) [Example 63-B] | 0.007 µM
13 | COc1cccc(NCC(=O)N[C@@H](CC(C)C)C(=O)NN(CCC(N)=O)C(=O)[C@H](F)Cl)c1 (single isomer, unassigned) [Example 83-A] | 0.9 µM
14 | COc1cccc(NCC(=O)N[C@@H](CC(C)C)C(=O)NN(CCC(N)=O)C(=O)[C@@H](F)Cl)c1 (single isomer, unassigned) [Example 83-B] | 0.06 µM
15 | CC(C)C[C@H](NC(=O)/C=C/c1ccccc1)C(=O)NN(CCC(N)=O)C(=O)[C@H](F)Cl (single isomer, unassigned) [Example 86-A] | 0.75 µM
16 | CC(C)C[C@H](NC(=O)/C=C/c1ccccc1)C(=O)NN(CCC(N)=O)C(=O)[C@@H](F)Cl (single isomer, unassigned) [Example 86-B] | 0.023 µM

Same assay, conditions: read-out: IC50 (μM), SARS-CoV-2 3CLPro assay

Row | Structure (SMILES) | IC50
17 | NC(=O)CCN(NC(=O)CNC(=O)OCc1ccccc1)C(=O)CCl [Example 1, Benzyl N-[2-[2-(3-amino-3-oxo-propyl)-2-(2-chloroacetyl)hydrazino]-2-axo-ethyl]carbamate] | 4.59 µM
18 | CC(C)C[C@H](NC(=O)OCc1ccccc1)C(=O)NN(CCC(N)=O)C(=O)CCl [Example 2, Benzyl N-[(1S)-1-[[(3-amino-3-oxo-propyl)-(2-chloroacetyl)amino]carbamoyl]-3-methyl-butyl]carbamate] | 0.017 µM
19 | CC(C)C[C@H](NC(=O)OCc1ccccc1)C(=O)NN(CCC(N)=O)C(=O)C(Cl)c1ccccc1 (stereo partly drawn) [Example 3, Benzyl N-[(1S)-1-[[(3-amino-3-oxo-propyl)-(2-chloro-2-phenyl-acetyl)amino]carbamoyl]-3-methyl-butyl]carbamat] | 0.89 µM
20 | CC(C)C[C@H](NC(=O)OCc1ccccc1)C(=O)NN(CCC(N)=O)C(=O)C(C)Cl (stereo partly drawn) [Example 4, Benzyl N-[(1S)-1-[[(3-amino-3-oxo-propyl)-(2-chloropropanoyl)amino]carbamoyl]-3-methyl-butyl]carbamate] | 0.33 µM
